Source: US20100137324A1, “RHO-KINASE INHIBITORS” (priority 2001, published 2010)

melting point [°C] | SMILES
295 to 298 | O=C(Nc1ccncc1)c1nc(Nc2ccc3[nH]ncc3c2)c2ccccc2n1 [Example 131, 4-(1H-indazol-5-ylamino)-N-(4-pyridinyl)-2-quinazolinecarboxamide]
210 to 213 | COc1ccc(NC(=O)c2nc(Nc3ccc4[nH]ncc4c3)c3ccccc3n2)cc1 [Example 132, 4-(1H-indazol-5-ylamino)-N-(4-methoxyphenyl)-2-quinazolinecarboxamide]
215 to 217 | O=C(NC1CCCCC1)c1nc(Nc2ccc3[nH]ncc3c2)c2ccccc2n1 [Example 133, N-cyclohexyl-4-(1H-indazol-5-ylamino)-2-quinazolinecarboxamide]
237 to 239 | O=C(NC1CCCC1)c1nc(Nc2ccc3[nH]ncc3c2)c2ccccc2n1 [Example 134, N-cyclopentyl-4-(1H-indazol-5-ylamino)-2-quinazolinecarboxamide]
297 to 300 | O=C(Nc1ccccn1)c1nc(Nc2ccc3[nH]ncc3c2)c2ccccc2n1 [Example 135, 4-(1H-indazol-5-ylamino)-N-(2-pyridinyl)-2-quinazolinecarboxamide]
249 to 252 | O=C(Nc1cnc2ccccc2c1)c1nc(Nc2ccc3[nH]ncc3c2)c2ccccc2n1 [Example 136, 4-(1H-indazol-5-ylamino)-N-(3-quinolinyl)-2-quinazolinecarboxamide]
283 to 286 | CNC(=O)c1nc(Nc2ccc3[nH]ncc3c2)c2ccccc2n1 [Example 137, 4-(1H-indazol-5-ylamino)-N-methyl-2-quinazolinecarboxamide]
282 to 288 | Cc1nc(Nc2ccc3[nH]ncc3c2)c2ccccc2n1 [Example 139, N-(1H-indazol-5-yl)-N-(2-methyl-4-quinazolinyl)amine]
